The text below walks through data of EP0286825A2, “Use of 3'-fluro-3' deoxythymidine for the manufacture of a medicament for the treatment of virus infections” (Max-Planck-Gesellschaft zur Förderung der Wissenschaften …, priority 1987, dated 1988).

Read-outs that look alike come from different tables or passages of the source.

Data set [1] relates to HIV. Kind of data set: microbe, parasite or virus in culture. The conditions noted are these: for EC50: Human immunodeficiency virus 1, MT4, read-out: concentration of active material that protects the cells with half maximum action against the pathogenic effect of HIV. The format is cell-based.
The subject of a further data set is MT₄-cells. Briefly: Toxicity to MT4 cells in the absence of HIV, incorporation of thymidine. Conditions: MT₄ cells without HIV, Fig. 5, compared with the other compounds.
In data set [2] the test system is HIV. It is filed as cell-based.
Data set [3] relates to HIV. The format is cell-based. The source holds these as a separate data set.
Data set [4] concerns peripheral blood lymphocytes. Kind of data set: Viability and cell number of the PHA stimulated peripheral blood lymphocytes. Conditions: counts from thymidine incorporation. Background: Dividing cells build labelled thymidine or BrdU into new DNA.

`Cc1cn([C@H]2C[C@H](F)[C@@H](CO)O2)c(=O)[nH]c1=O`: the EC50 in the data set with HIV [1] was under 0.002 µg/mL.
As to `[N-]=[N+]=N[C@H]1C[C@H](n2cnc3c(O)ncnc32)O[C@@H]1CO` [3ʹ-azido-2ʹ,3ʹ-dideoxyinosine], the “rate of thymidine incorporation in the HIV infected cell line” value with HIV [1] (Fig. 5) is “nearly equalled that of non-infected T₄ cell lines”. The Toxicity result in the data set on MT₄-cells is given as “higher”.
For the molecule `Nc1nc2c(ncn2[C@H]2C[C@H](F)[C@@H](CO)O2)c(=O)[nH]1` [3ʹ-fluoro-2ʹ,3ʹ-dideoxyguanosine], the EC50 in the data set on HIV [1] (MT₄-cells, 1:40 dilution of the HIV parent liquid, thymidine incorporation) was under 1.5 µg/mL. The “in vitro therapeutic index” value with HIV [1] (toxic concentration compared with antiviral concentration, MT₄ human cell line) is reported as “approximately 400”.
Consider `Cc1cn([C@H]2C[C@H](N=[N+]=[N-])[C@@H](CO)O2)c(=O)[nH]c1=O` [AZT, azido-thymidine], for which the “%B/Bo” value is 54.2% in the data set on HIV [2] (AZT 0.01 uM, day 4); 62.3% in the data set with HIV [2] (AZT 0.01 uM, day 7); 12.0% in the data set on HIV [2] (AZT 0.01 uM, day 11); 6.2% in the data set on HIV [2] (AZT 0.01 uM, day 14); 53.0% in the data set with HIV [2] (AZT 0.1 uM, day 4); 75.2% in the data set on HIV [2] (AZT 0.1 uM, day 7). In addition, the “%B/Bo” value was found to be 78.6% with HIV [2] (AZT 0.1 uM, day 11); 67.1% in the data set with HIV [2] (AZT 0.1 uM, day 14); 53.1% in the data set on HIV [2] (AZT 1 uM, day 4); 68.2% in the data set on HIV [2] (AZT 1 uM, day 7); 79.8% with HIV [2] (AZT 1 uM, day 11); 84.4% with HIV [2] (AZT 1 uM, day 14). Further, the “ng p24/ml” value in the data set with HIV [2] (AZT 0.01 uM, day 4) was determined as 3.6 ng p24/ml; with HIV [2] (AZT 0.01 uM, day 7) it was 2.7 ng p24/ml; with HIV [2] (AZT 0.01 uM, day 11), 20 ng p24/ml; in the data set on HIV [2] (AZT 0.01 uM, day 14), 20 ng p24/ml; in the data set on HIV [2] (AZT 0.1 uM, day 4) it was 3.7 ng p24/ml; in the data set on HIV [2] (AZT 0.1 uM, day 7) it was 1.6 ng p24/ml. In addition, the “ng p24/ml” value in the data set on HIV [2] (AZT 0.1 uM, day 11) was determined as 1.3 ng p24/ml; in the data set with HIV [2] (AZT 0.1 uM, day 14), 2.3 ng p24/ml; with HIV [2] (AZT 1 uM, day 4), 3.7 ng p24/ml; in the data set with HIV [2] (AZT 1 uM, day 7) it was 2.2 ng p24/ml; in the data set with HIV [2] (AZT 1 uM, day 11), 1.25 ng p24/ml; in the data set on HIV [2] (AZT 1 uM, day 14), 0.94 ng p24/ml. Further, the “CPM/1+06 CELLS” value with HIV [3] (AZT 0.01UM, day 7) is 1.78E+03 CPM/1+06 CELLS; in the data set on HIV [3] (AZT 0.01UM, day 11) it was 7.19E+03 CPM/1+06 CELLS; in the data set with HIV [3] (AZT 0.01UM, day 14) it was 2.41E+04 CPM/1+06 CELLS; in the data set with HIV [3] (AZT 0.1UM, day 7), 8.64E+01 CPM/1+06 CELLS; in the data set on HIV [3] (AZT 0.1UM, day 11), 2.49E+02 CPM/1+06 CELLS; in the data set with HIV [3] (AZT 0.1UM, day 14) it was 9.78E+02 CPM/1+06 CELLS. For the same molecule, the “CPM/1+06 CELLS” value in the data set on HIV [3] (AZT 1UM, day 7) was found to be 7.66E+02 CPM/1+06 CELLS; with HIV [3] (AZT 1UM, day 14), 1.55E+02 CPM/1+06 CELLS. In addition, the CPM/ml was determined as 5.9E+03 CPM/ml with HIV [3] (AZT 0.01UM, day 7); 2.8E+04 CPM/ml in the data set with HIV [3] (AZT 0.01UM, day 11); 1.4E+05 CPM/ml in the data set with HIV [3] (AZT 0.01UM, day 14); 3.5E+02 CPM/ml in the data set on HIV [3] (AZT 0.1UM, day 7); 1.2E+03 CPM/ml with HIV [3] (AZT 0.1UM, day 11); 3.9E+03 CPM/ml with HIV [3] (AZT 0.1UM, day 14). The CPM/ml in the data set with HIV [3] (AZT 1UM, day 7) is 2.9E+03 CPM/ml; in the data set on HIV [3] (AZT 1UM, day 11), -8.1E+03 CPM/ml; in the data set on HIV [3] (AZT 1UM, day 14) it was 5.7E+02 CPM/ml. In addition, the “toxicity against the PBL” value in data set [4] was “do not show toxicity”.
